Measured values published in patent US9301989B2, “hTRPA1-activating composition and use thereof” (KOREA FOOD RESEARCH INSTITUTE, priority 2011, dated 2016).
“Also recorded” adds a separate entry of the source.

Tests used:
hTRPA1 [1] = target: T1, hTRPA1 (Homo sapiens, UniProt O75762); test: Evaluation of hTRPA1 action using Ca2+ imaging (Fura-2/AM) in cell lines stably expressing hTRPA1; assay type: cell-based; settings: for calcium release in hTRPA1 stably expressing cell line: 50 μM, FIG. 2; for activity inhibition by ruthenium red (RR): treatment with cationic channel blocker RR
T1 construct: The hTRPA1-expressing gene (coding region) was cloned; expressed in transfected cells
T1 sequence (O75762 whole entry): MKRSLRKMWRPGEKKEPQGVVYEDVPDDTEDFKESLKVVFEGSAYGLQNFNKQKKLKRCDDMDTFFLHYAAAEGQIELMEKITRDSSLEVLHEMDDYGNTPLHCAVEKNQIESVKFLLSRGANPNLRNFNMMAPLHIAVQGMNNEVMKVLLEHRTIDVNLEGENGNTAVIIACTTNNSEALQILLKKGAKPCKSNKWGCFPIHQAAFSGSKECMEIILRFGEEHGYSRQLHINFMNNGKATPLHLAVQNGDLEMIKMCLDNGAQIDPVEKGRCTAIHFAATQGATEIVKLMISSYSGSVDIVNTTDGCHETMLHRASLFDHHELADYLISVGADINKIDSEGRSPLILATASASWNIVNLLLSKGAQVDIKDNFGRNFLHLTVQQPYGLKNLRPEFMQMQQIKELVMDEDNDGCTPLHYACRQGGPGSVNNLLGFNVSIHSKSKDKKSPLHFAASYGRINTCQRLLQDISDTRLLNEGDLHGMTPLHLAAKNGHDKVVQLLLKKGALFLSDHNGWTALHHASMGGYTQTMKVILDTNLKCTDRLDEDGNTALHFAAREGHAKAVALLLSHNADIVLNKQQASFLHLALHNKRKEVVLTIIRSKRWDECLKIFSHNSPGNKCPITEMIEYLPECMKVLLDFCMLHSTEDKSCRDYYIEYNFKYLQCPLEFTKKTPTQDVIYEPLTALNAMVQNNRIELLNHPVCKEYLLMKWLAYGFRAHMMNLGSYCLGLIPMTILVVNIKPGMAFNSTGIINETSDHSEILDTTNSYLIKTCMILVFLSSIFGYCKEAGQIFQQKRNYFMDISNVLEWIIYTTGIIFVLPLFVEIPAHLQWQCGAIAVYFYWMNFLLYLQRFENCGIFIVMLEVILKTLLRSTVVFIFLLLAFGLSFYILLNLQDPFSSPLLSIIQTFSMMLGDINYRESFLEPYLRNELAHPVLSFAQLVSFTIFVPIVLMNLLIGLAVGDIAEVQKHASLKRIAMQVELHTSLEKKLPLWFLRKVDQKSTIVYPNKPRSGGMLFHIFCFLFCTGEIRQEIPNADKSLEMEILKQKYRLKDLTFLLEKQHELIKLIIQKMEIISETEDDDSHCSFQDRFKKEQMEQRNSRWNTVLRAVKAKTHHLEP
Protocol: (§1) The hTRPA1-expressing gene (coding region) was cloned according to the manufacturer's protocol for the pcDNA5/FRT Complete System (Invitrogen). In order to verify whether the hTRPA1 gene was accurately inserted into the vector, sequencing was carried out using the ABI 130 or 310 DNA generatic analyzer (Applied Biosystems), and the constructed vector and Pog44 were transduced into Flin-in 293 cells using Lipofectamine 2000 (Invitrogen). After 24 hours, the cells were optionally treated with 100 μg/ml of hygromycin-B (Invitrogen), following by further culturing for 2-3 weeks. Then, only antibiotic-resistant cells were collected, and used for measuring cellular responses of hTRPA1, followed by repeated culturing. The cells were cultured in Dulbecco's modified Eagle's medium (DMEM) supplemented with 10% fetal bovine serum.
The Ca^2+ imaging was conducted to measure hTRPA1 activation. Fura-2/AM (Molecular Probes, USA) was used as a marker for measuring the change in the intracellular calcium concentration. At 20-26 hours before the analysis, cell lines stably expressing hTRPA1 were dispensed in a 96-well plate. The cells were cultured in a solution added with Fura-2/AM (5 μM) at 27° C. for 30 minutes. The cells were washed with an assay buffer (140 mM NaCl, 10 mM HEPES, 2 mM CaCl2.2H2O, 2 mM EGTA, 1 mM MgCl2.6H2O, 10 mM glucose, and 5 mM KCl), added with 100 μL of the assay buffer, and left at room temperature for 15 minutes. The Fura-2/AM-loaded cells were placed on a microscope, and the fluorescence absorbance was measured between 340 nm and 380 nm. The images were recorded at 3-sec intervals, and the change in the intracellular calcium concentration was analyzed using MetalFluor software (Molecular Devices, Sunnyvale, Calif., USA).

NCI-H716 cells = test: GLP-1 secretion effect in NCI-H716 cells (GLP-1 active ELISA); assay type: cell-based, human; settings: 1 hour
Text: Glucagon-like peptide-1 (GLP-1), which is the hormone secreted from the gut, is involved in an anti-diabetic action by amplifying glucose-stimulated insulin secretion and suppressing the beta-cell death. GLP-1 is also involved in an anti-obesity action by decreasing the rate of gastric emptying and suppressing the appetite. Therefore, a GLP-1 secreting material can be expected to have anti-diabetic and anti-obesity effects.
The human-derived cell line NCI-H716 cells were purchased from the American Type Culture Collection (ATCC, Manassas, Va.). This cell line corresponds to suspension cells isolated from the large-intestinal Adenocarcinoma of an adult, and has been known as a cell line that mainly secrets GLP-1. For the maintenance of proliferation and culture of the cell line, the cells were cultured in RPMI 1640 medium supplemented with 10% fetal bovine serum (FBS), 2 mM L-glutamine, 100 IU/ml penicillin, and 100 μg/ml streptomycin, and for the adherence and differentiation of cells, the Matrigel matrix (Becton Dickinson and Co., Bedford, Mass.) was coated on plates and the cells were cultured in high-glucose DMEM supplemented with 10% FBS, 2 mm L-glutamine, 100 IU/ml penicillin, and 100 μg/ml streptomycin.
The NCI-H716 cell line was cultured at 2×10^5 cells/mL in a 96-well culture plate coated with Matrigel for 3 days. On the day of the experiment, the cells were washed with 1× phosphated buffered saline (PBS). For the control group, Krebs-Ringer bicarbonate buffer (KRB, 128.8 mmol/l NaCl, 4.8 mmol/l KCl, 1.2 mmol/l KH2PO4, 1.2 mmol/l MgSO4, 2.5 mmol/l CaCl2, 5 mmol/l NaHCO3, and 10 mmol/l HEPES, 0.2% BSA, pH 7.4) was used. For the analysis, the samples of different concentrations were added thereto, followed by incubation at 37° C. for 1 hour. After the incubation, the supernatant was taken (100 μL) for GLP-1 analysis, and analyzed by using the GLP-1 active ELISA kit (EGLP-35K, Millipore) according to the manufacturer's manual. The concentration of GLP-1 was calculated based on the supplied GLP-1 standard material (pmol).

hTRPA1 [2] = target: T1, hTRPA1; test: Measurement of intracellular Ca2+ concentration using cell-based analysis (FlexStation, Fluo-4-AM)
Protocol: as §1
The intercellular Ca^2+ concentration was measured by using FlexStation™ (Molecular Devices, Sunnyvale, Calif., USA). Cells were dispensed at 24 hours before the analysis, and treated with 5 μM Fluo-4-AM (Molecular Probes, Eugene, Oreg., USA) as a marker for measuring the change in the intracellular calcium concentration, followed by reaction at 27° C. for 30 minutes. After that, the cells were washed with an assay buffer (140 mM NaCl, 10 mM HEPES, 2 mM CaCl22H2O, 2 mM EGTA, 1 mM MgCl26H2o, 10 mM glucose, and 5 mM KCl), added with 100 μL of the assay buffer, and left at room temperature for 15 minutes. Then, each of extracts and compositions was treated and used to measure fluorescence absorbance at 486 nm (F486) and 516 nm (F516). The change in intercellular calcium concentration was represented as A relative fluorescent unit (RFU), and was analyzed by using the Softmax software (Molecular devices, USA).

[3] = Sensory test for pungent flavor; assay type: in vivo; settings: 1 μM solution
Protocol: The sensory test was conducted for the pungent flavor due to coniferyl alcohol. A solution of 1 μM coniferyl alcohol was used, and the sensitivity of the pungent taste was marked in a 15-point scale (n=6).

[4] = Lacrimation test (solution sprayed onto eyes of participants); assay type: in vivo; settings: 1 μM solution sprayed onto eyes
Protocol: The lacrimation test was conducted on the coniferyl alcohol. A solution of 1 μM coniferyl alcohol was used, and experiment participants were asked to write down their feeling when the solution was sprayed onto their eyes.

EC50 (hTRPA1 [2]; FIG. 29)	Ca2+ response inhibited by cationic channel blocker RR (hTRPA1 [2]; RR 30 μM)	Structure (SMILES)	calcium response / hTRPA1 action in hTRPA1-expressed cells (Ca2+ imaging) (hTRPA1 [1])	calcium release in hTRPA1 stably expressing cell line (hTRPA1 [1])	activity inhibition by HC-030031 (hTRPA1 [1]; treatment with TRPA1 antagonist HC-030031)	activity inhibition by ruthenium red (RR) (hTRPA1 [1])	GLP-1 secretion as compared with the untreated control group (NCI-H716 cells; 500 μM)	Ca2+ response inhibited by TRPA1 antagonist HC-030031 (hTRPA1 [2]; HC-030031 100 μM)	taste description in sensory test [3]	intensity of pungent tastes (spicy, tingle, and tangy tastes) ([3]; 15-point scale, n=6)	ocular tears or irritation due to spray [4]	GLP-1 secretion as compared with the untreated control group (NCI-H716 cells; 3 μM)	GLP-1 secretion as compared with the untreated control group (NCI-H716 cells; 10 μM or higher)
–	–	C=CCN=C=S [AITC, allyl isothiocyanate]	all cells were activated	calcium was released	not inhibited	most activities were inhibited	3.9 times	–	–	–	–	–	–
654 µM	inhibited	COc1cc(/C=C/CO)ccc1O [coniferyl alcohol, Coniferyl alcohol]	specifically acted on hTRPA1; also recorded: increased the intercellular Ca^2+ influx in a time-dependent manner	–	–	completely blocked	–	inhibited; also recorded: significantly reduced	the remaining taste was stronger than the first taste and the tongue burns or has a pain	11.83±1.6	ocular pain (tingling, stinging, and dizziness) was observed	3 times	≥ 4 times
–	–	O=CC=Cc1ccccc1 [CALD, cinnamaldehyde]	all cells were activated	calcium was released	–	most activities were inhibited	–	–	–	–	–	–	–
–	–	O=C(/C=C/c1ccc(O)c(O)c1)O[C@@H]1C[C@](O)(C(=O)O)C[C@@H](O)[C@H]1O [chlorogenic acid]	no effects	–	–	–	–	–	–	–	–	–	–
